Data taken from ChEMBL document CHEMBL4742400, “Protein kinase mkk4 inhibitors for promoting liver regeneration or reducing or preventing hepatocyte death” (2019).

Assays:
Homo sapiens [1] = organism: Homo sapiens; assay: (§1) Selectivity index, ratio of inhibition of full length human JNK1 (M1 to Q384 residues) expressed in mammalian expression system assessed as residual percent of control binding at 100 nM relative to control to inhibition of partial length human MKK4 (S84 to D399 residues) expressed in mammalian expression system assessed as residual percent of control binding at 100 nM relative to control
Homo sapiens [2] = organism: Homo sapiens; assay: as §1, with “MKK7” for “JNK1”, “R419” for “Q384”
Homo sapiens [3] = organism: Homo sapiens; assay: Selectivity index, ratio of inhibition of B-raf (unknown origin) to inhibition of partial length human MKK4 (S84 to D399 residues) expressed in mammalian expression system assessed as residual percent of control binding at 100 nM relative to control

Row | SMILES | Selectivity ratio (Homo sapiens [1]) | Selectivity ratio (Homo sapiens [2]) | Selectivity ratio (Homo sapiens [3])
1 | CCCS(=O)(=O)Nc1ccc(F)c(C(=O)c2n[nH]c3ncc(-c4ccc(C)c(C)c4)cc23)c1F | 3 | 3 | < 3
2 | CCCS(=O)(=O)Nc1ccc(F)c(C(=O)c2n[nH]c3ncc(-c4ccc(Cl)c(C(F)(F)F)c4)cc23)c1F | > 30 | 3 | < 3
3 | CCCS(=O)(=O)Nc1ccc(F)c(C(=O)c2n[nH]c3ncc(-c4ccccc4N)cc23)c1F | 3 | 3 | 3
4 | CCCS(=O)(=O)Nc1ccc(F)c(C(=O)c2n[nH]c3ncc(-c4ccc(S(=O)(=O)NCC(O)CO)cc4)cc23)c1F (stereo unspecified) | > 30 | > 30 | < 3
5 | CCCS(=O)(=O)Nc1ccc(F)c(C(=O)c2n[nH]c3ncc(-c4ccccc4F)cc23)c1F | > 30 | > 30 | 10
6 | CCCS(=O)(=O)Nc1ccc(F)c(C(=O)c2n[nH]c3ncc(-c4ccc(S(=O)(=O)NC(C)=O)cc4)cc23)c1F | > 30 | > 30 | < 3
7 | CCCS(=O)(=O)Nc1ccc(F)c(C(=O)c2n[nH]c3ncc(-c4cccc(N(C)C)c4)cc23)c1F | 3 | 3 | < 3
8 | O=C(c1ccc(F)c(NS(=O)(=O)Cc2ccccc2)c1F)c1n[nH]c2ncc(-c3ccncc3)cc12 | > 30 | > 30 | > 30
9 | CCCS(=O)(=O)Nc1ccc(F)c(C(=O)c2n[nH]c3ncc(-c4ccccc4C)cc23)c1F | 10 | 10 | 3
10 | CCCS(=O)(=O)Nc1ccc(F)c(C(=O)c2n[nH]c3ncc(-c4cccc(C(F)(F)F)c4)cc23)c1F | < 3 | < 3 | < 3
11 | CCCS(=O)(=O)Nc1ccc(F)c(C(=O)c2n[nH]c3ncc(-c4cc(Cl)cc(Cl)c4)cc23)c1F | < 3 | < 3 | < 3
12 | CCCS(=O)(=O)Nc1ccc(F)c(C(=O)c2n[nH]c3ncc(-c4ccccc4)cc23)c1F | 10 | > 30 | 10
13 | CCCCS(=O)(=O)Nc1cccc(C(=O)c2n[nH]c3ncc(-c4ccc5c(c4)OCCO5)cc23)c1F | < 3 | 3 | 3
14 | CCCS(=O)(=O)Nc1c(F)ccc(C(=O)c2n[nH]c3ncc(-c4ccc(C(=O)O)cc4)cc23)c1F | > 30 | > 30 | > 30
15 | CCCS(=O)(=O)Nc1ccc(F)c(C(=O)c2n[nH]c3ncc(-c4ccc(C(=O)NCC(O)CO)cc4)cc23)c1F (stereo unspecified) | > 30 | > 30 | < 3
16 | CCCS(=O)(=O)Nc1ccc(F)c(C(=O)c2n[nH]c3ncc(-c4ccccc4O)cc23)c1F | 3 | 10 | 3
17 | CCCS(=O)(=O)Nc1ccc(F)c(C(=O)c2n[nH]c3ncc(-c4cccc([N+](=O)[O-])c4)cc23)c1F | 3 | 3 | < 3
18 | CCCS(=O)(=O)Nc1ccc(F)c(C(=O)c2n[nH]c3ncc(-c4cccc(OC)c4)cc23)c1F | 10 | 10 | 3
19 | CCCS(=O)(=O)Nc1ccc(F)c(C(=O)c2n[nH]c3ncc(-c4ccccc4OC)cc23)c1F | 10 | > 30 | > 30

Further lines, results first:

Row | Selectivity ratio (Homo sapiens [1]) | Selectivity ratio (Homo sapiens [2]) | Selectivity ratio (Homo sapiens [3]) | SMILES
20 | > 30 | > 30 | < 3 | CCCS(=O)(=O)Nc1ccc(F)c(C(=O)c2n[nH]c3ncc(-c4cccc(N)c4)cc23)c1F
21 | 10 | 10 | 3 | CCCS(=O)(=O)Nc1ccc(F)c(C(=O)c2n[nH]c3ncc(-c4ccc([N+](=O)[O-])cc4)cc23)c1F
22 | > 30 | > 30 | 10 | CCCS(=O)(=O)Nc1ccc(F)c(C(=O)c2n[nH]c3ncc(-c4ccc(F)cc4)cc23)c1F
23 | 3 | 3 | 3 | CCCS(=O)(=O)Nc1ccc(F)c(C(=O)c2n[nH]c3ncc(-c4ccc(C(C)C)cc4)cc23)c1F
24 | 10 | 10 | < 3 | CCCS(=O)(=O)Nc1ccc(F)c(C(=O)c2n[nH]c3ncc(-c4ccc(C)cc4)cc23)c1F
25 | < 3 | < 3 | < 3 | CCCS(=O)(=O)Nc1ccc(F)c(Cc2n[nH]c3ncc(-c4ccc(Cl)cc4)cc23)c1F
26 | > 30 | > 30 | < 3 | CCCS(=O)(=O)Nc1ccc(F)c(C(=O)c2n[nH]c3ncc(-c4ccc(N(C)C)cc4)cc23)c1F
27 | 10 | 10 | < 3 | CCCS(=O)(=O)Nc1ccc(F)c(C(=O)c2n[nH]c3ncc(-c4cccc(F)c4)cc23)c1F
28 | > 30 | > 30 | 3 | CCCS(=O)(=O)Nc1ccc(F)c(C(=O)c2n[nH]c3ncc(-c4ccc(-c5nnn[nH]5)cc4)cc23)c1F
29 | > 30 | > 30 | 3 | CCCS(=O)(=O)Nc1ccc(F)c(C(=O)c2n[nH]c3ncc(-c4ccc(S(N)(=O)=O)cc4)cc23)c1F
30 | > 30 | > 30 | 10 | CCCS(=O)(=O)Nc1ccc(F)c(C(=O)c2n[nH]c3ncc(-c4ccc(C(=O)O)cc4)cc23)c1F
31 | > 30 | > 30 | < 3 | CCCS(=O)(=O)Nc1ccc(F)c(C(=O)c2n[nH]c3ncc(-c4ccc(S(C)(=O)=O)cc4)cc23)c1F
32 | > 30 | > 30 | 10 | CCCS(=O)(=O)Nc1ccc(F)c(C(=O)c2n[nH]c3ncc(-c4ccc(N)cc4)cc23)c1F
33 | 3 | 3 | < 3 | CCCS(=O)(=O)Nc1ccc(F)c(C(=O)c2n[nH]c3ncc(-c4ccc(C(F)(F)F)cc4)cc23)c1F
34 | 3 | 3 | 3 | CCCS(=O)(=O)Nc1ccc(F)c(C(=O)c2n[nH]c3ncc(-c4ccc(Cl)cc4Cl)cc23)c1F
35 | > 30 | > 30 | 10 | CCCS(=O)(=O)Nc1ccc(F)c(C(=O)c2n[nH]c3ncc(-c4ccc(O)cc4)cc23)c1F
36 | < 3 | < 3 | < 3 | CCCS(=O)(=O)Nc1ccc(F)c(C(=O)c2n[nH]c3ncc(-c4ccc(C(C)(C)C)cc4)cc23)c1F
37 | 3 | > 30 | 3 | CCCS(=O)(=O)Nc1ccc(F)c(C(=O)c2n[nH]c3ncc(-c4cccc(O)c4)cc23)c1F
38 | 3 | 3 | < 3 | CCCS(=O)(=O)Nc1ccc(F)c(C(=O)c2n[nH]c3ncc(-c4cccc(C)c4)cc23)c1F
39 | < 3 | < 3 | < 3 | CCCS(=O)(=O)Nc1ccc(F)c(S(=O)(=O)c2n[nH]c3ncc(-c4ccc(Cl)cc4)cc23)c1F
40 | < 3 | < 3 | < 3 | CCCS(=O)(=O)Nc1ccc(F)c([S+]([O-])c2n[nH]c3ncc(-c4ccc(Cl)cc4)cc23)c1F (stereo unspecified)
41 | < 3 | < 3 | < 3 | CCCS(=O)(=O)Nc1ccc(F)c(NC(=O)c2n[nH]c3ncc(-c4ccc(Cl)cc4)cc23)c1F
42 | 10 | 10 | 3 | CCCS(=O)(=O)Nc1ccc(F)c(C(=O)c2n[nH]c3ncc(-c4ccccc4Cl)cc23)c1F
43 | < 3 | < 3 | < 3 | CCCS(=O)(=O)Nc1ccc(F)c(C(=O)c2n[nH]c3ncc(-c4cccc(Cl)c4)cc23)c1F
44 | < 3 | < 3 | < 3 | CCCS(=O)(=O)Nc1ccc(F)c(Sc2n[nH]c3ncc(-c4ccc(Cl)cc4)cc23)c1F
45 | 10 | < 3 | < 3 | CCCS(=O)(=O)Nc1ccc(F)c(C(=O)c2n[nH]c3ncc(-c4ccc(Cl)c(Cl)c4)cc23)c1F
46 | 10 | 10 | < 3 | CCCS(=O)(=O)Nc1ccc(F)c(C(=O)c2n[nH]c3ncc(-c4ccc(OC)cc4)cc23)c1F
47 | > 30 | > 30 | 3 | CCCS(=O)(=O)Nc1ccc(F)c(C(=O)c2n[nH]c3ncc(-c4ccc(C(N)=O)cc4)cc23)c1F
